Test results from patent US7968558B2, “Amidine derivatives of 2-heteroaryl-quinazolines and quinolines; potent analgesics and anti-inflammatory agents” (Rottapharm S.p.A., priority 2006, dated 2011).
Counter-ions that a name gives are not always drawn.

Columns and labels:
IL-1 production = IL-1 production in IL-1 stimulated human chondrosarcoma cell line; format: cell-based; settings: Compound concentration is 10 μM
From the text: (§1) The compounds of the invention have been found effective in interfering with cytokine production in several cell lines, representative examples of this effect are reported in Table 3, for two representative cytokines, in IL-1 stimulated human chondrosarcoma cell line.

[1] = test system: acetic acid-induced abdominal writhes; test: Acetic acid-induced writhing test; format: in vivo, mice; settings: for MPE (%): 30 min. before acetic acid
Method: With the aim of assessing whether the compounds of the invention are able to inhibit responses to peritoneal irritation-induced visceral pain, the acetic acid-induced writhing assay was used in mice to determine the degree of anti-nociception.
The writhing test is a model of inflammatory pain that has long been used as a screening tool for evaluation of analgesic and anti-inflammatory agents (HDJ Collier, B. J. Pharmacol Chemother., 1968, 32, 295-310). The test was performed inducing nociception by an i.p. injection of acetic acid 1%, 0.1 mL/10 g of body weight. Mice were pre-treated (subcutaneously, s.c., three different doses: 3, 10, 30 mg/Kg) with the tested compounds 30 min. before acetic acid injection, while control animals received a similar volume of saline solution. A group of mice was treated with Paracetamol (200 mg/Kg, s.c.) as reference drug. The number of abdominal writhes (full extension of both hind paws) was cumulatively counted every 5 minutes over a period of 20 min. immediately after the acetic acid injection. The anti-nociceptive activity was expressed as inhibition of abdominal writhes as maximum percent effect (MPE), which represents the difference (%) in pain threshold between the animals treated with the drug and the ones that received only the vehicle.

COX-2 expression = test: IL-1β induced COX-2 expression in SW1353 human chondrosarcoma cell line; format: cell-based; settings: at 10 μM
From the text: (§2) Conversely, compounds of the invention are able to inhibit, at micromolar concentration, IL-1β induced PGE2 production in cellular systems. This inhibition effect on the production of the pro-inflammatory mediator PGE2, instead of to be ascribed to a direct COX-2 inhibition, as happens with Celecoxib and other COX-2 inhibitors, is in this case due to inhibition of cytokine induced COX-2 expression as proven in cellular systems.
(§3) Effectiveness in inhibition of PGE2 production induced by IL-1β in chondrocyte cell culture, as well as inhibition in IL-1β induced COX-2 expression in SW1353 human chondrosarcoma cell line, is summarized in Table 2, for representative compounds of the invention.

IL-6 production = IL-6 production in IL-1 stimulated human chondrosarcoma cell line; format: cell-based; settings: Compound concentration is 10 μM
From the text: as §1

[2] = test system: Zymosan induced paw volume increase; test: Zymosan-induced paw oedema; format: in vivo, rat
Method: (§4) The interplantar injection of Zymosan-induced mechanical hyperalgesia was used as a model of inflammatory pain (Meller, Neuropharmacology, 1994, 33, 1471-1478). In this model, typically a male Sprague-Dawley or Wistar rat (200-250 g) receives an interplantar injection of 3 mg/100 μl zymosan into one hind paw. A marked inflammation occurs in this hind paw. Drugs are administered orally for evaluation of efficacy, 30 min. before the inflammatory insult. The hyperalgesia induced by zymosan administration was evaluated using the Randall-Selitto method (Arch. Int. Pharmacodyn., 1957, 111, 409). The quantitation of the analgesic effect is achieved by an analgesimeter, which consist in applying to the inflamed paw an increasing weight (from 130-140 g up to 500 g). The difference in the mechanical pain threshold between the basal value (generally 230-250 g) and the one tolerated by the animals treated with the drug, determined 4 hours after the inflammatory challenge, is defined as mechanical hyperalgesia.
(§5) Mechanical hyperalgesia is expressed for the compounds of the invention as ED50, which is the dose of the administered compound able to increase the pain threshold by 50% in comparison with the group of control animals. The corresponding ED100, representing the dose able of reducing of 100% the pain threshold, can be calculated for those cases where there is a linear dose-response relationship. In vivo anti-inflammatory effect exerted by the compound of the invention can be assessed in the same Zymosan induced inflammation test described above, by measuring the volume of the oedema induced by the inflammatory agent. The oedema was evaluated as the increase in the volume of the Zymosan injected paw within a time of 0-2 hrs. The measurements of the variation of the oedema volume of the paw were recorded using hydroplethysmometer, which consists of two plastic cuvettes containing a surfactant liquid, the larger one being used for immersion of the paw, connected to the smaller one which contains a trans-ducer capable of recording small displacements of the volume used for the measure. The paw is immersed in the cuvettes up to the tibiotarsal joint. The volume of the liquid displaced is proportional to the extent of the inflammation. The efficacy of the compounds of the invention in preventing oedema formation is expressed as ED30, and is measured 2 hours after the inflammatory challenge, and represents the dose able of reducing of 30%, the Zymosan induced paw volume increase in comparison to control animals (animals treated with Zymosan but treated with only distilled water instead of the testing compound). The corresponding ED50, representing the dose able of reducing of 50% the zymosan induced paw volume increase, can be calculated for those cases where there is a linear dose-response relationship.
(§6) In both the experiments, for each test compound, at least three doses were used, with 10 animals per group. Compounds of the invention were tested at 10, 20 and 40 mg/Kg.

[3] = test system: IL-1β induced PGE2 production; test: PGE2 production induced by IL-1β in chondrocyte cell culture; format: cell-based, rabbit; settings: at 10 μM
From the text: as §2, §3

[4] = test system: Zymosan-induced mechanical hyperalgesia; test: Zymosan-induced mechanical hyperalgesia (Randall-Selitto); format: in vivo, rat
Method: as §4, §5, §6

[5] = test system: mechanical hyperalgesia associated with STZ-induced diabetes; test: STZ-induced diabetes mechanical hyperalgesia (neuropathic pain); format: in vivo, rat
Method: Streptozotocin (STZ)-induced diabetes in the rat has been increasingly used as a model of painful diabetic neuropathy to assess the efficacies of potential analgesic agents (C. Courteix, Pain 1993, 53, 81-8). The compounds of the invention were tested for efficacy in reducing mechanical hyperalgesia associated with STZ-induced diabetes in the rat, according to the experimental model as described by the literature. Diabetes was produced with the injection of a single dose (75 mg/Kg i.p.) of STZ. In the following four weeks after the induction of diabetes the clinical symptoms (weight, body and skin temperature, motility and hyperglycemia) progressively developed by the animals, are strictly monitored. After four weeks, the scores obtained in diabetic rats to various pain stimuli (in particular mechanical stimuli) were grater than those in normal rats, indicating hyperalgesia. The hyperalgesia induced by diabetes was evaluated using the Randall-Selitto method as above described, and quantitated using the analgesimeter. Also in this case, the difference in the mechanical pain threshold between the basal value (generally 230-250 g) and the one tolerated by the animals treated with the drug, is defined as mechanical hyperalgesia. The compounds of the invention were administered i.p. (solution, Tween 80, 10% in saline) at different doses, and mechanical hyperalgesia was measured at the reported time, as maximum percent effect (MPE) which represents the difference (%) in pain threshold between the animals treated with the drug and the controls that received only the vehicle, compared with the weight borne by naïf non-diabetic controls. A 100% protection means that the diabetic animals treated with the compound can tolerate the same stimulus (weight) as the naïf non-diabetic animals. MPE higher than 100% means that the diabetic animal treated with the compound can tolerate stimuli (weight) higher than the control non-diabetic animals (hypoalgesia).

CFA-induced hyperalgesia = test: CFA model of chronic inflammatory pain; format: in vivo, rat

CC(=N)Nc1ccc2nc(-c3ccc4c(c3)OCO4)ccc2c1 [Example 2, N-[2-(1,3-benzodioxol-5-yl)quinolin-6-yl]acetamidine dihydrochloride]
Inhibition (%) of IL-1 production (IL-1 production): 45%
MPE (%) ([1]; 3 mg/Kg s.c.): 59%
MPE (%) ([1]; 10 mg/Kg s.c.): 61%
MPE (%) ([1]; 30 mg/Kg s.c.): 57%
ED50 ([1]; Mus musculus, sc): < 3 mg/kg
Inhibition of COX-2 expression in SW1353 human chondrosarcoma cell line, % at 10 μM (COX-2 expression): 59% at 10 μM
Inhibition (%) of IL-6 production (IL-6 production): 78%
ED50 ([2]; Rattus norvegicus, po, read-out: Oedema Reduction ED50): 98 mg/kg
Oedema Reduction ED30 ([2]; oral, 2 hours after challenge): 15.0 mg/kg
Effects on PGE2 production in rabbit Chondrocyte culture, % at 10 μM [3]: 70% at 10 μM
ED50 ([4]; Rattus norvegicus, read-out: Analgesia ED50): 10.7 mg/kg
Analgesia ED100 ([4]; oral, calculated from linear dose-response): 22 mg/kg
MPE 0.5 hrs. ([5]; 3 mg/Kg i.p.): 32%
MPE 1.5 hrs. ([5]; 3 mg/Kg i.p.): 75%
MPE 3 hrs. ([5]; 3 mg/Kg i.p.): 8%
MPE 0.5 hrs. ([5]; 10 mg/Kg i.p.): 76%
MPE 1.5 hrs. ([5]; 10 mg/Kg i.p.): 107%
MPE 3 hrs. ([5]; 10 mg/Kg i.p.): 13%
MPE 0.5 hrs. ([5]; 30 mg/Kg i.p.): 151%
MPE 1.5 hrs. ([5]; 30 mg/Kg i.p.): 124%
MPE 3 hrs. ([5]; 30 mg/Kg i.p.): 93%
MPE 0.5 hrs. (CFA-induced hyperalgesia; 3 mg/Kg i.p.): 36%
MPE 1.5 hrs. (CFA-induced hyperalgesia; 3 mg/Kg i.p.): 40%
MPE 3 hrs. (CFA-induced hyperalgesia; 3 mg/Kg i.p.): 7%
MPE 0.5 hrs. (CFA-induced hyperalgesia; 10 mg/Kg i.p.): 94%
MPE 1.5 hrs. (CFA-induced hyperalgesia; 10 mg/Kg i.p.): 34%
MPE 3 hrs. (CFA-induced hyperalgesia; 10 mg/Kg i.p.): 11%
MPE 24 hrs. (CFA-induced hyperalgesia; 10 mg/Kg i.p.): 13%
MPE 0.5 hrs. (CFA-induced hyperalgesia; 30 mg/Kg i.p.): 188%
MPE 1.5 hrs. (CFA-induced hyperalgesia; 30 mg/Kg i.p.): 81%
MPE 3 hrs. (CFA-induced hyperalgesia; 30 mg/Kg i.p.): 34%
MPE 24 hrs. (CFA-induced hyperalgesia; 30 mg/Kg i.p.): 9%
